We go through 37 molecules from patent publication US20230398130A1, “METHODS AND COMPOSITIONS FOR DIFFERENTIATING STEM CELLS” (Massachusetts Institute of Technology, priority 2020, published 2023).

Structures can show the parent of a compound that is named as a salt.

In the assay the test system is ISC-enriched organoids. Nature of the assay: Primary screen, 384-well 2.5-D organoid differentiation (ENR+CD, 6 days, Target Selective Inhibitor Library, vs whole-plate median): ATP (CellTiter-Glo 3D, CTG).
Where [1] appears, read: Dose 0.08 uM, standard z score of FC.
The mark [2] stands for this setting: Dose 0.40 uM, standard z score of FC.
[3] abbreviates: Dose 2.00 uM, standard z score of FC.
Where [4] appears, read: Dose 10.00 uM, standard z score of FC.
Setting [5] is: Dose 0.40 uM, primary screen, standard z score.
Where [6] appears, read: Dose 2.00 uM, primary screen, standard z score.
Where [7] appears, read: Dose 10.00 uM, primary screen, standard z score.

Regarding `Cc1ccc(-c2cc(C(F)(F)F)nn2-c2ccc(S(N)(=O)=O)cc2)cc1` [Celecoxib], the Z.CTG by setting is: under setting [1], −0.082; under setting [2], −0.714; under setting [3], −0.282; under setting [4], −0.306.
Consider `COc1ccc([C@]2(C#N)CC[C@@H](C(=O)O)CC2)cc1OC1CCCC1` [Cilomilast], for which the Z.CTG is reported as −0.799 under setting [1], −0.807 under setting [2], −0.562 under setting [3] and −0.458 under setting [4].
For `C[C@@H](NCCCc1cccc(C(F)(F)F)c1)c1cccc2ccccc12` [Cinacalcet HCl], in that order: −1.061, −0.712, −0.028 and −1.076.
As for `C=C1C(=O)O[C@@H]2/C=C(\C)CC/C=C(\C)CC[C@@H]12` [Costunolide], the Z.CTG runs as follows: under setting [1], −0.070; under setting [2], 0.288; under setting [3], 0.120; under setting [4], 0.019.
Consider `CC(=O)O[C@]1(C(C)=O)CC[C@H]2[C@@H]3C=C(Cl)C4=CC(=O)[C@@H]5C[C@@H]5[C@]4(C)[C@H]3CC[C@@]21C` [Cyproterone Acetate], for which the Z.CTG was −0.263 under setting [1], 0.122 under setting [2], −0.341 under setting [3] and −0.414 under setting [4].
For `COc1cc2nc(N3CCN(C(=O)C4COc5ccccc5O4)CC3)nc(N)c2cc1OC` (stereo not shown) [Doxazosin Mesylate], the Z.CTG under setting [1] is recorded as 0.171, the Z.CTG under setting [2] was −0.037, the Z.CTG under setting [3] was 0.349 and the Z.CTG under setting [4] is 0.179.
In the same order, the values of `O=C(N/N=C/c1ccc(O)c(O)c1)c1cc2ccccc2cc1O` [Dynasore] are −0.592, −0.604, −0.364 and −0.026.
For `CCN(c1cc(-c2ccc(CN3CCOCC3)cc2)cc(C(=O)NCc2c(C)cc(C)[nH]c2=O)c1C)C1CCOCC1` [EPZ-6438], in that order: 0.107, 0.178, −0.163 and 0.802.
Take `CCCCCCCCCCCC1=C(O)C(=O)C=C(O)C1=O` [Embelin]: the Z.CTG is, setting by setting: under setting [1], −0.770; under setting [2], −1.728; under setting [3], −0.776; under setting [4], −1.720.
Consider `CCN(CC)C(=O)/C(C#N)=C/c1cc(O)c(O)c([N+](=O)[O-])c1` [Entacapone], for which the Z.CTG under setting [1] is reported as −0.275, the Z.CTG under setting [2] is recorded as −0.154, the Z.CTG under setting [3] came out at 0.493 and the Z.CTG under setting [4] was −0.935.
Regarding `CCOc1ccccc1-n1c(C(C)N2CCN(C(=O)COc3ccc(Cl)cc3)CC2)nc2ccccc2c1=O` (stereo not shown) [Erastin], the Z.CTG reads like this: under setting [1], 0.537; under setting [2], 0.681; under setting [3], 0.907; under setting [4], 0.711.
Regarding `COc1ccc2nc([S@@+]([O-])Cc3ncc(C)c(OC)c3C)[nH]c2c1` [Esomeprazole Sodium], the Z.CTG amounted to 0.689 under setting [1], 0.475 under setting [2], 0.923 under setting [3] and 0.648 under setting [4].
In the same order, the values of `CCc1cccc2c3c([nH]c12)C(CC)(CC(=O)O)OCC3` (stereo not shown) [Etodolac] are −0.147, 0.117, 0.020 and 0.054.
For `Cc1nc(C(=O)NCC(=O)O)c(O)c2ccc(Oc3ccccc3)cc12` [FG-4592], in that order: 0.782, 0.679, 0.692 and 0.568.
`CCOC(=O)C1=C(C)NC(C)=C(C(=O)OC)C1c1cccc(Cl)c1Cl` (stereo not shown) [Felodipine]: the Z.CTG is −0.187 under setting [1], −0.763 under setting [2], 0.025 under setting [3] and 0.078 under setting [4].
For `CC(C)n1c(/C=C/C(O)CC(O)CC(=O)O)c(-c2ccc(F)cc2)c2ccccc21` (stereo not shown) [Fluvastatin Sodium], in that order: −0.384, −1.151, −2.653 and −4.206.
Turning to `COCCCC/C(=N\OCCN)c1ccc(C(F)(F)F)cc1` [Fluvoxamine maleate], the Z.CTG is on record as 0.274 under setting [1], 0.607 under setting [2], 0.504 under setting [3] and 0.330 under setting [4].
Regarding `C=C[C@@]1(C)CC(=O)[C@]2(O)[C@@]3(C)[C@@H](O)CCC(C)(C)[C@@H]3[C@H](O)[C@H](OC(C)=O)[C@@]2(C)O1` [Forskolin], the Z.CTG under setting [1] was −0.508, the Z.CTG under setting [2] was −0.418, the Z.CTG under setting [3] was −0.789 and the Z.CTG under setting [4] was −0.284.
With `C[C@]12CC[C@@H]3c4ccc(O)cc4C[C@@H](CCCCCCCCC[S+]([O-])CCCC(F)(F)C(F)(F)F)[C@H]3[C@@H]1CC[C@@H]2O` (stereo partly shown) [Fulvestrant], the Z.CTG is on record as 0.285 under setting [1], −0.150 under setting [2], 0.339 under setting [3] and −0.488 under setting [4].
On to `COc1ccc2c(c1)C(=O)N(CCc1ccc(S(=O)(=O)NC(=O)NC3CCCCC3)cc1)C(=O)C2(C)C` [Gliquidone], for which the Z.CTG runs as follows: under setting [1], 0.297; under setting [5], 0.247; under setting [6], 0.588; under setting [7], 0.320.
In the case of `CN1C2CCCC1CC(NC(=O)c1nn(C)c3ccccc13)C2` (stereo not shown) [Granisetron HCl], the Z.CTG was −0.512 (Dose 0.08 uM, primary screen, standard z score); −0.205 under setting [5]; −0.426 under setting [6]; −0.710 under setting [7].
The molecule `Cc1cc(OCc2nnc(SC3CCCC3)n2-c2cccnc2)ccc1-c1ccc(S(C)(=O)=O)cc1` [NMS-873] registered a Z.CTG under setting [1] of 0.416, a Z.CTG under setting [2] of −0.122, a Z.CTG under setting [3] of −2.173 and a Z.CTG under setting [4] of −3.683.
For `COc1ccccc1N1CCN(CC(O)COc2cccc3ccccc23)CC1` (stereo not shown) [Naftopidil], the Z.CTG under setting [1] is recorded as −0.093, the Z.CTG under setting [2] is −0.384, the Z.CTG under setting [3] is given as −0.426 and the Z.CTG under setting [4] was −0.316.
For `COc1ccc2cc([C@H](C)C(=O)O)ccc2c1` [Naproxen], in that order: −0.233, −0.162, −1.405 and −3.063.
On to `OC(CNCC(O)C1CCc2cc(F)ccc2O1)C1CCc2cc(F)ccc2O1` (stereo not shown) [Nebivolol], for which the Z.CTG under setting [1] was determined as 0.926, the Z.CTG under setting [2] was found to be 0.526, the Z.CTG under setting [3] is recorded as 0.746 and the Z.CTG under setting [4] came to 0.499.
Consider `COC(=O)C1=C(C#N)NC(C)=C(C(=O)OC(C)C)C1c1cccc([N+](=O)[O-])c1` (stereo not shown) [Nilvadipine], for which the Z.CTG runs as follows: under setting [1], 0.493; under setting [2], 0.324; under setting [3], 0.506; under setting [4], 0.460.
With `Cc1c(Cc2ccc3ccccc3n2)c2cc(F)ccc2n1CC(=O)O` [OC000459], the Z.CTG was 0.184 under setting [1], −0.155 under setting [2], 0.210 under setting [3] and 0.211 under setting [4].
In turn, `Cc1sc2c(c1C)C(c1ccc(Cl)cc1)=N[C@@H](CC(=O)Nc1ccc(O)cc1)c1nnc(C)n1-2` [OTX015] displayed a Z.CTG under setting [1] of −0.092, a Z.CTG under setting [2] of −0.952, a Z.CTG under setting [3] of −1.638 and a Z.CTG under setting [4] of −2.169.
As for `NC(=O)N1c2ccccc2CC(=O)c2ccccc21` [Oxcarbazepine], the Z.CTG under setting [1] is reported as −0.051, the Z.CTG under setting [2] is reported as −0.247, the Z.CTG under setting [3] is on record as −0.197 and the Z.CTG under setting [4] is −0.359.
As to `Cc1cc(C(C)(C)C)c(O)c(C)c1CC1=NCCN1` [Oxymetazoline HCl], the Z.CTG reads like this: under setting [1], 0.340; under setting [2], 0.281; under setting [3], −0.016; under setting [4], 0.282.
In the case of `O=C(O)/C=C/c1ccc(Cn2ccnc2)cc1` [Ozagrel HCl], the Z.CTG runs as follows: under setting [1], 0.118; under setting [2], 0.318; under setting [3], 0.437; under setting [4], 0.547.
For `O=C(O)/C=C/c1ccc(Cn2ccnc2)cc1` [Ozagrel], in that order: 0.131, 0.535, −0.149 and 0.271.
Regarding `O=C(NOC[C@H](O)CO)c1ccc(F)c(F)c1Nc1ccc(I)cc1F` [PD0325901], the Z.CTG under setting [1] is −1.200, the Z.CTG under setting [2] is −2.760, the Z.CTG under setting [3] is listed as −2.072 and the Z.CTG under setting [4] is listed as −2.301.
The molecule `CC(C)CC(=O)Nc1[nH]nc2c1CN(C(=O)C1CCN(C)CC1)C2(C)C` [PHA-793887] gave a Z.CTG under setting [1] of 0.271, a Z.CTG under setting [2] of 0.314, a Z.CTG under setting [3] of −0.344 and a Z.CTG under setting [4] of −2.045.
In the case of `Oc1cc(O)cc(/C=C/c2ccc(O)c(O)c2)c1` [Piceatannol], the Z.CTG under setting [1] came out at 0.554, the Z.CTG under setting [2] is −0.216, the Z.CTG under setting [3] worked out at 0.177 and the Z.CTG under setting [4] is reported as −0.170.
As for `COc1ccc(-c2nc3ccc(C4=NNC(=O)CC4C)cc3[nH]2)cc1` (stereo not shown) [Pimobendan], the Z.CTG is, setting by setting: under setting [1], −0.053; under setting [2], 0.460; under setting [3], 0.492; under setting [4], 0.333.
For `Nc1cccc2c1C(=O)N(C1CCC(=O)NC1=O)C2=O` (stereo not shown) [Pomalidomide], the Z.CTG reads like this: under setting [1], 0.150; under setting [2], 0.536; under setting [3], −0.517; under setting [4], −0.729.
